Data from patent US12018195B2, “Light-selective particles, related methods and related applications” (priority 2014, dated 2024).

Test system: macrophage cells
Excerpt: Positive control includes only growth media (FIG. A).
Positive control includes only growth media.

For `CC(=O)[O-].CC(=O)[O-].[Zn+2]` [Zn acetate], which “cytotoxic effect on macrophage cells” value is on record?
The value was “toxic impact”.
